Earlier results in patent US20220175758A1, “COMPOSITIONS AND METHODS TO TREAT NON-ALCOHOLIC FATTY LIVER DISEASES (NAFLD)” (Coherus Biosciences, Inc., priority 2019, published 2022).

Conditions: monotherapy

In the case of Cc1cc(F)c(C(=O)Nc2cccc(-c3nncn3C(C)C)n2)cc1-n1cnc(C2CC2)c1 [selonsertib], the “primary endpoint of the STELLAR-4 phase 3 clinical trial” value is given as “failed to meet the primary endpoint”.
